Test results published in US8802597B2, “Herbicidal pyrimidines” (E I du Pont de Nemours and Company, priority 2003, dated 2014).

What was measured:
Type in all cases: in vivo
[1] = system: crabgrass (Digitaria sanguinalis); assay: Test A pre/postemergence
How it was run: (§1)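 Compared with untreated controls, treated plants were visually rated for injury on a 0 (none) to 100 (complete control) scale about ten days after spraying. Pre- and postemergence applications used one solvent/surfactant formulation; postemergence plants measured 2–10 cm.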

[2] = system: barnyardgrass (Echinochloa crus-galli); assay: Test A pre/postemergence
How it was run: as §1

[3] = system: velvetleaf (Abutilon theophrasti); assay: Test A pre/postemergence
How it was run: as §1

[4] = system: morningglory (Ipomoea spp.); assay: Test A pre/postemergence
How it was run: as §1

[5] = system: giant foxtail (Setaria faberi); assay: Test A pre/postemergence
How it was run: as §1

[6] = system: redroot pigweed (Amaranthus retroflexus); assay: Test A pre/postemergence
How it was run: as §1

[7] = system: bearded (brdd.) sprangletop (Leptochloa fusca ssp. fascicularis); assay: Test E flooded paddy water application; details: Flood, 21 days, scale 0 to 100 (0 no effect, 100 complete control)
How it was run: (§2)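 Weeds sown in sterilized Tama silt loam (2.6% organic matter), greenhouse 29.5/26.7° C, 16-h photoperiod; at 2.0–2.5-leaf stage pots flooded to 3 cm and compound added to paddy water. Visual rating vs untreated controls after 21 days, 0 (no effect) to 100 (complete control).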

[8] = system: purple redstem (Ammannia coccinea); assay: Test E flooded paddy water application; details: Flood, 21 days, scale 0 to 100 (0 no effect, 100 complete control)
How it was run: as §2

[9] = system: water seeded rice seedlings (Oryza sativa cv. ‘Japonica-M202’); assay: Test E flooded paddy water application; details: Flood, 21 days, scale 0 to 100 (0 no effect, 100 complete control)
How it was run: as §2

[10] = system: rice flatsedge (Cyperus iria); assay: Test E flooded paddy water application; details: Flood, 21 days, scale 0 to 100 (0 no effect, 100 complete control)
How it was run: as §2

[11] = system: transplanted rice seedlings (Oryza sativa cv. ‘Japonica-M202’); assay: Test E flooded paddy water application; details: Flood, 21 days, scale 0 to 100 (0 no effect, 100 complete control)
How it was run: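 Response scored visually on a 0–100 scale (100 = complete control) at 21 days against untreated pots. Treatment was into paddy water 3 cm deep over silt loam, with plants at the 2.0–2.5-leaf stage, grown under 16-h light at 29.5/26.7 °C day/night.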

[12] = system: early watergrass (Echinochloa oryzoides); assay: Test E flooded paddy water application; details: Flood, 21 days, scale 0 to 100 (0 no effect, 100 complete control)
How it was run: as §2

[13] = system: late watergrass (Echinochloa oryzicola); assay: Test E flooded paddy water application; details: Flood, 21 days, scale 0 to 100 (0 no effect, 100 complete control)
How it was run: as §2

[14] = system: junglerice (Echinochloa colona); assay: Test E flooded paddy water application; details: Flood, 21 days, scale 0 to 100 (0 no effect, 100 complete control)
How it was run: as §2

[15] = system: smallflower umbrella sedge (Cyperus difformis); assay: Test E flooded paddy water application; details: Flood, 21 days, scale 0 to 100 (0 no effect, 100 complete control)
How it was run: as §2

[16] = system: ducksalad (Heteranthera limosa); assay: Test E flooded paddy water application; details: Flood, 21 days, scale 0 to 100 (0 no effect, 100 complete control)
How it was run: as §2

[17] = system: barnyardgrass (Echinochloa crus-galli); assay: Test E flooded paddy water application; details: Flood, 21 days, scale 0 to 100 (0 no effect, 100 complete control)
How it was run: as §2

[18] = Postemergence, 125 g ai/ha, 0 to 100 scale (0 no effect, 100 complete control)
[19] = Postemergence, 500 g ai/ha, 0 to 100 scale (0 no effect, 100 complete control)
[20] = Preemergence, 125 g ai/ha, 0 to 100 scale where 0 is no effect and 100 is complete control, approximately ten days
[21] = Preemergence, 500 g ai/ha, 0 to 100 scale where 0 is no effect and 100 is complete control, approximately ten days

## CCOC(=O)c1nc(-c2ccc(OC)cc2)nc(N)c1Cl [Compound 98]
[1]; [18]
  Plant response rating, Crabgrass: 0
[1]; [19]
  Plant response rating, Crabgrass: 10
[1]; [20]
  Plant response rating, Crabgrass: 0
[1]; [21]
  Plant response rating, Crabgrass: 15
[2]; [18]
  Plant response rating, Barnyardgrass: 0
[2]; [19]
  Plant response rating, Barnyardgrass: 20
[2]; [20]
  Plant response rating, Barnyardgrass: 0
[2]; [21]
  Plant response rating, Barnyardgrass: 0
[3]; [18]
  Plant response rating, Velvetleaf: 35
[3]; [19]
  Plant response rating, Velvetleaf: 45
[3]; [20]
  Plant response rating, Velvetleaf: 0
[3]; [21]
  Plant response rating, Velvetleaf: 5
[4]; [18]
  Plant response rating, Morningglory: 0
[4]; [19]
  Plant response rating, Morningglory: 0
[4]; [20]
  Plant response rating, Morningglory: 0
[4]; [21]
  Plant response rating, Morningglory: 0
[5]; [18]
  Plant response rating, Foxtail, Giant: 0
[5]; [19]
  Plant response rating, Foxtail, Giant: 15
[5]; [20]
  Plant response rating, Foxtail, Giant: 0
[5]; [21]
  Plant response rating, Foxtail, Giant: 0
[6]; [18]
  Plant response rating, Pigweed: 5
[6]; [19]
  Plant response rating, Pigweed: 15
[6]; [20]
  Plant response rating, Pigweed: 0
[6]; [21]
  Plant response rating, Pigweed: 0
[7]; 32 g ai/ha
  Sprangletop, Brdd. plant response rating: 0
[7]; 64 g ai/ha
  Sprangletop, Brdd. plant response rating: 0
[7]; 125 g ai/ha
  Sprangletop, Brdd. plant response rating: 0
[7]; 250 g ai/ha
  Sprangletop, Brdd. plant response rating: 0
[7]; 16 g ai/ha
  Plant response rating, Sprangletop, Brdd.: 0
[8]; 32 g ai/ha
  Redstem plant response rating: 0
[8]; 64 g ai/ha
  Redstem plant response rating: 0
[8]; 125 g ai/ha
  Redstem plant response rating: 40
[8]; 250 g ai/ha
  Redstem plant response rating: 40
[8]; 16 g ai/ha
  Plant response rating, Redstem: 0
[9]; 32 g ai/ha
  Rice, Water Seeded plant response rating: 0
[9]; 64 g ai/ha
  Rice, Water Seeded plant response rating: 0
[9]; 125 g ai/ha
  Rice, Water Seeded plant response rating: 0
[9]; 250 g ai/ha
  Rice, Water Seeded plant response rating: 0
[9]; 16 g ai/ha
  Plant response rating, Rice, Water Seeded: 0
[10]; 32 g ai/ha
  Flatsedge, Rice plant response rating: 80
[10]; 64 g ai/ha
  Flatsedge, Rice plant response rating: 100
[10]; 125 g ai/ha
  Flatsedge, Rice plant response rating: 100
[10]; 250 g ai/ha
  Flatsedge, Rice plant response rating: 100
[10]; 16 g ai/ha
  Plant response rating, Flatsedge, Rice: 80
[11]; 32 g ai/ha
  Rice, Transplanted plant response rating: 0
[11]; 64 g ai/ha
  Rice, Transplanted plant response rating: 0
[11]; 125 g ai/ha
  Rice, Transplanted plant response rating: 0
[11]; 250 g ai/ha
  Rice, Transplanted plant response rating: 0
[11]; 16 g ai/ha
  Plant response rating, Rice, Transplanted: 0
[12]; 32 g ai/ha
  Watergrass, Early plant response rating: 0
[12]; 64 g ai/ha
  Watergrass, Early plant response rating: 0
[12]; 125 g ai/ha
  Watergrass, Early plant response rating: 0
[12]; 250 g ai/ha
  Watergrass, Early plant response rating: 0
[12]; 16 g ai/ha
  Plant response rating, Watergrass, Early: 0
[13]; 32 g ai/ha
  Watergrass, Late plant response rating: 0
[13]; 64 g ai/ha
  Watergrass, Late plant response rating: 0
[13]; 125 g ai/ha
  Watergrass, Late plant response rating: 0
[13]; 250 g ai/ha
  Watergrass, Late plant response rating: 0
[13]; 16 g ai/ha
  Plant response rating, Watergrass, Late: 0
[14]; 32 g ai/ha
  Junglerice plant response rating: 0
[14]; 64 g ai/ha
  Junglerice plant response rating: 0
[14]; 125 g ai/ha
  Junglerice plant response rating: 0
[14]; 250 g ai/ha
  Junglerice plant response rating: 0
[14]; 16 g ai/ha
  Plant response rating, Junglerice: 0
[15]; 32 g ai/ha
  Sedge, Umbrella plant response rating: 60
[15]; 64 g ai/ha
  Sedge, Umbrella plant response rating: 60
[15]; 125 g ai/ha
  Sedge, Umbrella plant response rating: 60
[15]; 250 g ai/ha
  Sedge, Umbrella plant response rating: 60
[15]; 16 g ai/ha
  Plant response rating, Sedge, Umbrella: 60
[16]; 32 g ai/ha
  Ducksalad plant response rating: 100
[16]; 64 g ai/ha
  Ducksalad plant response rating: 100
[16]; 125 g ai/ha
  Ducksalad plant response rating: 100
[16]; 250 g ai/ha
  Ducksalad plant response rating: 100
[16]; 16 g ai/ha
  Plant response rating, Ducksalad: 0
[17]; 32 g ai/ha
  Barnyardgrass plant response rating: 0
[17]; 64 g ai/ha
  Barnyardgrass plant response rating: 0
[17]; 125 g ai/ha
  Barnyardgrass plant response rating: 0
[17]; 250 g ai/ha
  Barnyardgrass plant response rating: 0
[17]; 16 g ai/ha
  Plant response rating, Barnyardgrass: 0
